# Experimental data as given in US9586962B2, “Disubstituted octahydropyrrolo [3,4-C] pyrroles as orexin receptor modulators” (Janssen Pharmaceutica NV, priority 2011, dated 2017).
# Target: T1, human orexin 2 receptor (Homo sapiens (Human), UniProt O43614)
# Test: Human orexin 2 receptor radioligand binding ([3H]EMPA competition, HEK293 cells)
# Details: HEK293 cells expressing human orexin-2 receptor, read-out: OR 2 Ki
# T1 sequence (O43614 whole entry): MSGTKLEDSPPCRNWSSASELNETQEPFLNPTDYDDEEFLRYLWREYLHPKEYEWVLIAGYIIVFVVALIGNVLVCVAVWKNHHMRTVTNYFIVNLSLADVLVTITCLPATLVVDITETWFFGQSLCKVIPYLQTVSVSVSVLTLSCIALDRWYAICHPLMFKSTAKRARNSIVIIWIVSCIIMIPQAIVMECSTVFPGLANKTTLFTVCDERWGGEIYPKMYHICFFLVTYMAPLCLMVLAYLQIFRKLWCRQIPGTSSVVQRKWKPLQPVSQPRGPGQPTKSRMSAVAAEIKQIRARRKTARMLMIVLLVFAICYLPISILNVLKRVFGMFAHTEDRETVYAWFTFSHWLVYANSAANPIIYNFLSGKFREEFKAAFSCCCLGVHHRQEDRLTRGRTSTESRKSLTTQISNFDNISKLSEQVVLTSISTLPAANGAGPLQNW
row,Ki,SMILES
1,64 nM,"Cc1noc(-c2c(F)cccc2C(=O)N2CC3CN(c4ncc(F)c(C)n4)CC3C2)n1 (centres unmarked) [Example 440, 2-{[3-Fluoro-2-(3-methyl-1,2,4-oxadiazol-5-yl)phenyl]carbonyl}-5-(5-fluoro-4-methylpyrimidin-2-yl)octahydropyrrolo[3,4-c]pyrrole]"
2,33 nM,"COc1cccc(-n2nccn2)c1C(=O)N1CC2CN(c3nc(C)cc(C)n3)CC2C1 (centres unmarked) [Example 465, 2-(4,6-Dimethylpyrimidin-2-yl)-5-{[2-methoxy-6-(2H-1,2,3-triazol-2-yl)phenyl]carbonyl}octahydropyrrolo[3,4-c]pyrrole]"
3,16 nM,"Cc1cc(C)nc(N2CC3CN(C(=O)c4c(F)cccc4-c4ncco4)CC3C2)n1 (centres unmarked) [Example 491, 2-(4,6-Dimethylpyrimidin-2-yl)-5-{[2-fluoro-6-(1,3-oxazol-2-yl)phenyl]carbonyl}octahydropyrrolo[3,4-c]pyrrole]"
4,55 nM,"Cc1nc(N(C)C)cc(N2CC3CN(C(=O)c4c(F)cccc4-n4nccn4)CC3C2)n1 (centres unmarked) [Example 418, 6-[5-{[2-Fluoro-6-(2H-1,2,3-triazol-2-yl)phenyl]carbonyl}hexahydropyrrolo[3,4-c]pyrrol-2(1H)-yl]-N,N,2-trimethylpyrimidin-4-amine]"
5,160 nM,"O=C(c1cccc(F)c1I)N1CC2CN(c3cnc4cc(F)c(F)cc4n3)CC2C1 (centres unmarked) [Example 449, 6,7-Difluoro-2-{5-[(3-fluoro-2-iodophenyl)carbonyl]hexahydropyrrolo[3,4-c]pyrrol-2(1H)-yl}quinoxaline]"
6,23 nM,"Cc1cc(C)nc(N2CC3CN(C(=O)c4cccc(F)c4-c4nnc[nH]4)CC3C2)n1 (centres unmarked) [Example 432, 2-(4,6-Dimethylpyrimidin-2-yl)-5-{[3-fluoro-2-(1H-1,2,4-triazol-5-yl)phenyl]carbonyl}octahydropyrrolo[3,4-c]pyrrole]"
7,45 nM,"Cc1ccnc(-c2cccc(F)c2C(=O)N2CC3CN(c4nc(C)cc(C)n4)CC3C2)c1 (centres unmarked) [Example 489, 2-(4,6-Dimethylpyrimidin-2-yl)-5-{[2-fluoro-6-(4-methylpyridin-2-yl)phenyl]carbonyl}octahydropyrrolo[3,4-c]pyrrole]"
8,85 nM,"Cc1nc(N(C)C)cc(N2CC3CN(C(=O)c4cc(F)ccc4-c4ncccn4)CC3C2)n1 (centres unmarked) [Example 425, 6-{5-[(5-Fluoro-2-pyrimidin-2-ylphenyl)carbonyl]hexahydropyrrolo[3,4-c]pyrrol-2(1H)-yl}-N,N,2-trimethylpyrimidin-4-amine]"
9,764 nM,"Cc1ccc(-c2ncc(C)o2)c(C(=O)N2CC3CN(c4cc(N(C)C)nc(C)n4)CC3C2)n1 (centres unmarked) [Example 429, N,N,2-Trimethyl-6-[5-{[6-methyl-3-(5-methyl-1,3-oxazol-2-yl)pyridin-2-yl]carbonyl}hexahydropyrrolo[3,4-c]pyrrol-2(1H)-yl]pyrimidin-4-amine]"
10,15 nM,"Cc1cc(C)nc(N2CC3CN(C(=O)c4c(F)cccc4-c4cscn4)CC3C2)n1 (centres unmarked) [Example 486, 2-(4,6-Dimethylpyrimidin-2-yl)-5-{[2-fluoro-6-(1,3-thiazol-4-yl)phenyl]carbonyl}octahydropyrrolo[3,4-c]pyrrole]"
11,20 nM,"COc1cnc(C(=O)N2CC3CN(c4nc(C)c(C)c(C)n4)CC3C2)c(-n2nccn2)c1 (centres unmarked) [Example 444, 2-{[5-Methoxy-3-(2H-1,2,3-triazol-2-yl)pyridin-2-yl]carbonyl}-5-(4,5,6-trimethylpyrimidin-2-yl)octahydropyrrolo[3,4-c]pyrrole]"
12,38 nM,"COc1ccc(C(=O)N2CC3CN(c4cnc5cc(F)c(F)cc5n4)CC3C2)c(-c2ncccn2)c1 (centres unmarked) [Example 459, 6,7-Difluoro-2-{5-[(4-methoxy-2-pyrimidin-2-ylphenyl)carbonyl]hexahydropyrrolo[3,4-c]pyrrol-2(1H)-yl}quinoxaline]"
13,270 nM,"CCCOc1ccc(C)cc1C(=O)N1CC2CN(c3cc(N(C)C)nc(C)n3)CC2C1 (centres unmarked) [Example 430, N,N,2-Trimethyl-6-{5-[(5-methyl-2-propoxyphenyl)carbonyl]hexahydropyrrolo[3,4-c]pyrrol-2(1H)-yl}pyrimidin-4-amine]"
14,26 nM,"Cc1nc(N2CC3CN(C(=O)c4cccc(F)c4-c4ncco4)CC3C2)ncc1F (centres unmarked) [Example 496, 2-(5-Fluoro-4-methylpyrimidin-2-yl)-5-{[3-fluoro-2-(1,3-oxazol-2-yl)phenyl]carbonyl}octahydropyrrolo[3,4-c]pyrrole]"
15,47 nM,"COc1cccnc1-c1c(F)cccc1C(=O)N1CC2CN(c3cnc4cc(F)c(F)cc4n3)CC2C1 (centres unmarked) [Example 453, 6,7-Difluoro-2-[5-{[3-fluoro-2-(3-methoxypyridin-2-yl)phenyl]carbonyl}hexahydropyrrolo[3,4-c]pyrrol-2(1H)-yl]quinoxaline]"
16,36 nM,"O=C(c1cccc(F)c1-c1ncccc1F)N1CC2CN(c3cnc4cc(F)c(F)cc4n3)CC2C1 (centres unmarked) [Example 450, 6,7-Difluoro-2-[5-{[3-fluoro-2-(3-fluoropyridin-2-yl)phenyl]carbonyl}hexahydropyrrolo[3,4-c]pyrrol-2(1H)-yl]quinoxaline]"
17,182 nM,"COc1ccc(-n2nccn2)c(C(=O)N2CC3CN(c4cc(N(C)C)nc(C)n4)CC3C2)c1 (centres unmarked) [Example 423, 6-[5-{[5-Methoxy-2-(2H-1,2,3-triazol-2-yl)phenyl]carbonyl}hexahydropyrrolo[3,4-c]pyrrol-2(1H)-yl]-N,N,2-trimethylpyrimidin-4-amine]"
18,524 nM,"COc1ncc(-c2cccc(F)c2C(=O)N2CC3CN(c4nc(C)cc(C)n4)CC3C2)s1 (centres unmarked) [Example 479, 2-(4,6-Dimethylpyrimidin-2-yl)-5-{[2-fluoro-6-(2-methoxy-1,3-thiazol-5-yl)phenyl]carbonyl}octahydropyrrolo[3,4-c]pyrrole]"
19,62 nM,"Cc1nc(N(C)C)cc(N2CC3CN(C(=O)c4ccc(F)cc4-n4nccn4)CC3C2)n1 (centres unmarked) [Example 417, 6-[5-{[4-Fluoro-2-(2H-1,2,3-triazol-2-yl)phenyl]carbonyl}hexahydropyrrolo[3,4-c]pyrrol-2(1H)-yl]-N,N,2-trimethylpyrimidin-4-amine]"
20,270 nM,"Cc1cc(C)nc(N2CC3CN(C(=O)c4c(F)cccc4-c4nnc[nH]4)CC3C2)n1 (centres unmarked) [Example 437, 2-(4,6-Dimethylpyrimidin-2-yl)-5-{[2-fluoro-6-(1H-1,2,4-triazol-5-yl)phenyl]carbonyl}octahydropyrrolo[3,4-c]pyrrole]"
21,29 nM,"O=C(c1cccc(F)c1-c1ncco1)N1CC2CN(c3cnc4cc(F)c(F)cc4n3)CC2C1 (centres unmarked) [Example 451, 6,7-Difluoro-2-[5-{[3-fluoro-2-(1,3-oxazol-2-yl)phenyl]carbonyl}hexahydropyrrolo[3,4-c]pyrrol-2(1H)-yl]quinoxaline]"
22,897 nM,"CCOc1ccc(C)nc1C(=O)N1CC2CN(c3nc(C)cc(C)n3)CC2C1 (centres unmarked) [Example 414, 2-(4,6-Dimethylpyrimidin-2-yl)-5-[(3-ethoxy-6-methylpyridin-2-yl)carbonyl]octahydropyrrolo[3,4-c]pyrrole]"

# Target: T1, human orexin 2 receptor
# Test: Human orexin 2 receptor Ca2+ mobilization assay (FLIPR, PFSK cells, orexin B 100 nM)
# Format: cell-based
# Details: modified Cheng-Prusoff correction, read-out: OR 2 Kb
row,Kb,SMILES
1,15 nM,"Cc1noc(-c2c(F)cccc2C(=O)N2CC3CN(c4ncc(F)c(C)n4)CC3C2)n1 (centres unmarked) [Example 440, 2-{[3-Fluoro-2-(3-methyl-1,2,4-oxadiazol-5-yl)phenyl]carbonyl}-5-(5-fluoro-4-methylpyrimidin-2-yl)octahydropyrrolo[3,4-c]pyrrole]"
